# Laboratory results published in patent US20250339405A1, “a-SYNUCLEIN AGGREGATE BINDING AGENT AND IMAGING METHOD” (National Institutes for quantum and Radiological Science …, priority 2019, published 2025).
# Read-outs that look alike come from different tables or passages of the source.
# Experiments:
# α-synuclein aggregate [1] = target: T1, α-synuclein aggregate (Homo sapiens, UniProt P37840); test: Binding to α-synuclein aggregate versus tau aggregate (inventors' finding, no method given)
# α-synuclein lesions [2] = target: T2, α-synuclein lesions (Mus musculus, UniProt O55042); test: Ex vivo imaging of α-synuclein fibril-injected model mouse brain; format: in vivo; settings: 1.66 mg/kg; brains collected 90 minutes after C05-05 or 120 minutes after BF-227
# T2 construct: from tissue; host or cells: brain of C57BL/6 mice inoculated in the striatum with recombinant murine α-synuclein fibrils (made in E. coli)
# Procedure: A model mouse at 6 weeks after the injection of the α-synuclein fiber solution was anesthetized with 1.5% (v/v) isoflurane in a manner similar to that described in “(Preparation of α-synuclein fibril-injected mouse model)” above, and C05-05 (1.66 mg/kg) or BF-227 (1.66 mg/kg) was intraperitoneally administered.
# The brains were collected and frozen 90 minutes after the administration of C05-05 (or 120 minutes after the administration of BF-227), and frozen sections with the thickness of 20 μm were prepared in a cryostat (HM560). After mounting the sections using a mounting medium (VECTASHIELD H-1000), images of α-synuclein aggregate-enriched areas on the sections were obtained using a fluorescence microscope (DM4000).
# Moreover, the same sections were immersed and fixed overnight in a phosphate buffer solution containing 4% paraformaldehyde. The brain after fixation was washed under running water and then treated with an autoclave for the antigen retrieval. Immunohistochemical staining with an anti-phosphorylated α-synuclein monoclonal antibody (pS129, abcam, ab59264) (1:1000) was carried out, and after mounting the sections using a mounting medium (VECTASHIELD H-1000), images of the same areas were obtained using the fluorescence microscope (DM4000). FIG. 7(a) contains images showing the case where C05-05 was administered, and FIG. 7(b) is images showing the case where BF-227 was administered.
# [3] = test system: aggregate of tau or amyloid-β formed in the brain of the AD patient; test: In vitro fluorescence microscope measurement, AD patient brain sections; format: binding, human; settings: AD and DLB patient brain sections, 30 μM
# From the text: Postmortem human brains were obtained from autopsies carried out with respect to a dementia with Lewy bodies (DLB) and Alzheimer's disease (AD) patients. Moreover, an AD brain tissue was fixed in 10% neutral buffered formalin, embedded in a paraffin block, and sliced with a thickness of 6 μm. Postfixed fresh frozen sections of the amygdala tissue of the DLB patient and formalin fixed, paraffin embedded sections of a deparaffinized middle frontal gyrus tissue of the AD patient were used. Thirty μM of each of the above compounds and brain sections were incubated in a 50% ethanol solution for 30 minutes at room temperature. The sections were then washed twice, i.e., washed with a 50% ethanol solution for 5 minutes and with ultrapure water for 3 minutes. After mounting the sections using a mounting medium ([sequence] H-1000, Vector Laboratories), images of lesion-enriched areas on the sections were obtained using a fluorescence microscope (DM4000, Leica). Analysis software (Image J) was used to quantify the fluorescence of lesion-enriched and lesion-free (background) areas.
# [4] = target: T3, α-synuclein aggregate formed in the brain of the DLB patient (Homo sapiens, UniProt P37840); test: In vitro fluorescence microscope measurement, DLB patient brain sections; format: binding; settings: for binding to the α-synuclein aggregate formed in the brain of the DLB patient, reactivity relative to PBB3: 30 μM compound, 50% ethanol, 30 minutes, room temperature, amygdala sections
# T3 construct: Postfixed fresh frozen sections of the amygdala tissue of the DLB patient; from tissue; host or cells: post-mortem human DLB amygdala, frozen sections
# From the text: Postmortem human brains were obtained from autopsies carried out with respect to a dementia with Lewy bodies (DLB) and Alzheimer's disease (AD) patients.
# A frozen DLB tissue was sliced with a thickness of 20 μm in a cryostat (HM560, Carl Zeiss).
# Postfixed fresh frozen sections of the amygdala tissue of the DLB patient and formalin fixed, paraffin embedded sections of a deparaffinized middle frontal gyrus tissue of the AD patient were used. Thirty μM of each of the above compounds and brain sections were incubated in a 50% ethanol solution for 30 minutes at room temperature. The sections were then washed twice, i.e., washed with a 50% ethanol solution for 5 minutes and with ultrapure water for 3 minutes. After mounting the sections using a mounting medium (VECTASHIELD H-1000, Vector Laboratories), images of lesion-enriched areas on the sections were obtained using a fluorescence microscope (DM4000, Leica). Analysis software (Image J) was used to quantify the fluorescence of lesion-enriched and lesion-free (background) areas.
# α-synuclein lesions [5] = target: T2, α-synuclein lesions; test: In vivo two-photon laser scanning fluorescence microscopy of α-synuclein fibril-injected model mouse; settings: tail vein, 50 μl of 0.05% solution; 90 minutes after C05-05 or 30 minutes after PBB3
# Procedure: Note that the α-synuclein aggregate was inoculated into the striatum of the mouse with the following manner. First, hair on the head of 9-week-old C57BL/6 male mouse anesthetized with 1.5% (v/v) isoflurane was removed, and the scalp was disinfected with isodine, followed by application of xylocaine and incision in the scalp to expose the skull. Then, a hole was drilled in the skull at a position of 0.05 mm posterior to the bregma and 2 mm lateral to the midline, and 3 μl of an α-synuclein fiber solution (murine α-synuclein fiber (4 mg/ml) in saline) was injected into a position […] ventral to the brain surface using a glass pipette, and then the scalp was returned and sutured.
# A model mouse was anesthetized with 1.5% (v/v) isoflurane 6 weeks after the injection of the α-synuclein fiber solution, and a cranial window was provided according to the Seylaz-Tomita method (Tomita et al. J Cereb Blood Flow Metab 25, 858-67, 2005). The mouse was anesthetized with 1.5% (v/v) isoflurane 2 weeks after the generation of the cranial window, and 50 μl of a solution of DMSO/physiological saline water=1:1 containing 0.05% of C05-05 or PBB3 was administered via the tail vein. The mouse was fixed under a two-photon laser fluorescence microscope 90 minutes after administration of C05-05 or 30 minutes after administration of PBB3, and 100 μl of a saline solution containing 5 mM of Sulforhodamine 101 was administered intraperitoneally, followed by intravital two-photon fluorescence imaging at an excitation wavelength of 900 nm. The detection wavelengths for C05-05 and PBB3 were set at 500 nm to 550 nm, and detection wavelengths for Sulforhodamine 101 were set at 573 nm to 648 nm.
# α-synuclein aggregate [6] = target: T1, α-synuclein aggregate; settings: background art, cited from earlier work
Compound,binding selectivity for the α-synuclein aggregate compared with a tau aggregate (α-synuclein aggregate [1]),"binding to the α-synuclein aggregate formed in the brain of the DLB patient, reactivity relative to PBB3 [4]",other results
"CNc1ccc(/C=C/C=C/c2nc3ccc(OCC(O)C[18F])cc3s2)cn1 (centres unmarked) [1-(18)F-fluoro-3-(2-((1E,3E)-4-(6-(methylamino)pyridin-3-yl)buta-1,3-dienyl)benzo[d]thiazol-6-yloxy)propan-2-ol]",higher binding selectivity for an aggregate of tau proteins than to an α-synuclein aggregate,,
"CNc1ccc(/C=C/C=C/c2nc3ccc(OCC(O)CF)cc3s2)cn1 (centres unmarked) [1-fluoro-3-(2-((1E,3E)-4-(6-(methylamino)pyridin-3-yl)buta-1,3-dienyl)benzo[d]thiazol-6-yloxy)propan-2-ol]",higher binding selectivity for an aggregate of tau proteins than to an α-synuclein aggregate,,
"[11CH3]Nc1ccc(/C=C/C=C/c2nc3ccc(O)cc3s2)cn1 [2-((1E,3E)-4-(6-((11)C-methylamino)pyridin-3-yl)buta-1,3-dienyl)benzo[d]thiazol-6-ol]",higher binding selectivity for an aggregate of tau proteins than to an α-synuclein aggregate,,
"CN(C)c1ncc(/C=C/c2nc3ccc(OCCF)cc3o2)s1 [BF-227, 2-(2-[2-dimethylaminothiazol-5-yl]ethenyl)-6-5 (2-[fluoro]ethoxy)benzoxazole, reference compound]",,,"detection of α-synuclein lesions by ex vivo imaging (α-synuclein lesions [2]): no lesion was detected; aggregate mainly bound [3]: mainly bound to the amyloid-β aggregate of AD; binding to the α-synuclein aggregate relative to the compounds represented by the formula (I) ([4]; 30 μM, DLB patient brain sections): weaker than the compounds represented by the formula (I)"
"CNc1ccc(C#C/C=C/c2nc3ccc(O)cc3s2)c(F)n1 [C05-01, (E)-2-(4-(2-fluoro-6-(methylamino)pyridin-3-yl)but-1-en-3-ynyl)benzo[d]thiazol-6-ol]",,reactivity equal to or greater than that of PBB3,
"CNc1ccc(C#C/C=C/c2nc3ccc(CN)cc3s2)cn1 [C05-02, (E)-5-(4-(6-(aminomethyl)benzo[d]thiazol-2-yl)but-3-en-1-ynyl)-N-methylpyridine-2-amine]",,reactivity equal to or greater than that of PBB3,
"CNc1ccc(C#C/C=C/c2nc3ccc(O)cc3s2)cn1 [C05-03, (E)-2-(4-(6-(methylamino)pyridin-3-yl)but-1-en-3-ynyl)benzo[d]thiazol-6-ol]",,reactivity equal to or greater than that of PBB3,
CNc1ccc(C#C/C=C/c2nc3ccc(OC)cc3s2)c(F)n1 [C05-04],,reactivity equal to or greater than that of PBB3,
"CN(C)c1ccc(C#C/C=C/c2nc3ccc(O)cc3s2)cc1 [C05-08, (E)-2-(4-(4-(dimethylamino)phenyl)but-1-en-3-ynyl)benzo[d]thiazol-6-ol]",,reactivity equal to or greater than that of PBB3,
"CNc1ccc(C#C/C=C/c2nc3ccc(O)cc3s2)cc1 [C05-09, (E)-2-(4-(4-(methylamino)phenyl)but-1-en-3-ynyl)benzo[d]thiazol-6-ol]",,reactivity equal to or greater than that of PBB3,
CNc1ccc(C#C/C=C/c2cc3cc(O)ccc3o2)c(F)n1 [C06-02],,reactivity equal to or greater than that of PBB3,
"CNc1ccc(/C=C/C=C/c2nc3ccc(O)cc3s2)cn1 [PBB3, 2-((1E,3E)-4-(6-(methylamino)pyridin-3-yl)buta-1,3-dienyl)benzo[d]thiazol-6-ol]",lower binding selectivity for the α-synuclein aggregate as compared with its binding selectivity for a tau aggregate,,"binding to the α-synuclein aggregate (α-synuclein aggregate [1]): some degree of affinity; binding selectivity for the α-synuclein aggregate compared with a tau aggregate (α-synuclein aggregate [1]; listed as 2-((1E,3E)-4-(6-(methylamino)pyridin-3-yl)buta-1,3-dienyl)benzo[d]thiazol-6-ol): higher binding selectivity for an aggregate of tau proteins than to an α-synuclein aggregate; detection of α-synuclein lesions by intravital two-photon fluorescence imaging (α-synuclein lesions [5]): no lesion was detected"
CN([11CH3])c1ncc(/C=C/c2nc3ccc(OCCF)cc3o2)s1 [[^11C]BF-227],,,binding selectivity for the α-synuclein aggregate (α-synuclein aggregate [6]; binds to an amyloid-β aggregate): low; binding affinity for the α-synuclein aggregate (α-synuclein aggregate [6]): insufficient; detection of α-synuclein lesions in patients by PET (α-synuclein aggregate [6]): only in a subset of MSA patients
